# Results as given in PMC8805583, “Discovery of Herbacetin as a Novel SGK1 Inhibitor to Alleviate Myocardial Hypertrophy” (Advanced Science, 2021).
# Tests used:
# [1] = system: primary rat cardiomyocytes; assay: Phenylephrine (PE)-induced hypertrophy in primary cardiomyocytes (phalloidin cell area, RT-PCR, western blot); assay type: cell-based
# Description: The magnitude of cardiac hypertrophy was then evaluated by directly measuring the cell area after Alexa Fluor 488 phalloidin staining.
# Primary cultures of cardiac myocytes were prepared from neonatal rat hearts using the Neonatal Heart Dissociation Kit (MACS, Germany) according to the manufacturer's protocol. Cardiomyocyte cultures were plated in gelatin‐coated plates in a plating medium containing 10% serum. After 24 h of plating, the medium was then replaced with a serum‐free maintenance medium and incubated for another 24 h before being used for further study.
# For phenylephrine (PE)‐mediated cardiac hypertrophy, cardiomyocytes cultured in 6‐well plates were stimulated with PE (50 µmol) for 48 h in serum‐free medium with or without Ext.R or HBT (50 µmol) treatment. Cardiomyocytes were lysed in cell lysis buffer to isolate protein or total RNA for western blotting or PCR analysis.
# Phenylephrine (PE) was obtained from Aladdin.
# Phalloidin Staining and Immunofluorescence
# To determine phenylephrine-induced hypertrophy, Alexa Fluor 488 Phalloidin (Cell Signaling) was used to fluorescently stain the cytoskeleton by the binding of phalloidin to F­actin. In brief, cells were fixed for 15 min using 4% paraformaldehyde then rinsed three times in PBS.
# Following incubation of Alexa Fluor 488 Phalloidin and Hoechst for 15 min at room temperature, cells were rinsed once with PBS. Images were carried out using an ImageXpress Micro® Confocal High-Content Imaging System (Molecular Devices).
# SGK1-FoxO1 interaction = biological target: T1, SGK1-FoxO1 interaction (Rattus norvegicus, UniProt Q06226); assay: Co-immunoprecipitation of SGK1 and FoxO1 in cardiomyocytes; assay type: cell-based; conditions: coimmunoprecipitation
# T1 construct: endogenous in cells; host or cells: primary neonatal rat cardiomyocytes
# T1 sequence (Q06226 1-430): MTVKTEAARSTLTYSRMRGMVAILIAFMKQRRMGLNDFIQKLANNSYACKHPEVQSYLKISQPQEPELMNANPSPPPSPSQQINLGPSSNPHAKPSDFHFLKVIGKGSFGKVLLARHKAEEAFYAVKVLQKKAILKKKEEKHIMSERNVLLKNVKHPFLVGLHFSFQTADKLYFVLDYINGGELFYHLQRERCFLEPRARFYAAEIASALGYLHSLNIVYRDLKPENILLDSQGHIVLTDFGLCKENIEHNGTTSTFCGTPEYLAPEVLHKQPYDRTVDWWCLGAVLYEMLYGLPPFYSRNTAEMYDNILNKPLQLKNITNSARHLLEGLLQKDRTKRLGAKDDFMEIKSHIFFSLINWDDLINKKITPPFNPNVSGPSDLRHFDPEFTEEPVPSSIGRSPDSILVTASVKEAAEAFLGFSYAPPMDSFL
# Description: In the present study, we studied HBT's effect on protein binding between SGK1 and FoxO1 by coimmunoprecipitation (Figure 5E). […] Nevertheless, as previously reported,^[ [30] ^] […] Supportively, after transfection with the SGK1(S422D) plasmid, we consistently detected increased cytoplasmic signal of FoxO1 compared to nontransfected cells in which the majority of FoxO1 signal was distributed in the nucleus.
# For the endogenous interaction assay, cardiomyocytes were treated with HBT or vehicle. After 24 h, cells were lysed with cell lysis buffer contained PMSF (Phenylmethylsulfonyl fluoride, a protease inhibitor). Protein extracts were harvested and immunoprecipitated with anti‐SGK1 or anti‐IgG antibody and protein A/G beads, and then measured by western blotting analysis.
# [2] = Pharmacokinetics and tissue distribution after single oral administration; assay type: in vivo, Sprague-Dawley rats; conditions: single oral dose 40 mg kg−1
# Description: Finally, we evaluate the safety and pharmacokinetics of HBT to ensure its druggability. […] Single dose administration of HBT at 40 mg kg^−1 was uptaken rapidly with a maximal plasma concentration of ≈6.73 ng mL^−1 after 10 min (Figure S14A, Supporting Information).
# Figure S13. Serum level of biochemical markers in mice of Ctrl and Ctrl + HBT groups. Data were analyzed using unpaired two-tailed t test and data were expressed as means ± SD, ns: no […]
# Figure S14. Plasma concentration (A) and in vivo distribution (B) of HBT after single oral administration with dosage of 40mg/kg rat weight (n=5-6). The quantitation of HBT was performed by LC-MS/MS analysis. […]
# or Fluo-4 AM working solution was added to each well and incubated at 37℃ for 20 minutes.
# Then the cells were washed with PBS for 3 times and images were acquired using an ImageXpress Micro® Confocal High-Content Imaging System (Molecular Devices). The mean fluorescence intensity of cells positive for DCFH-DA or Fluo-4 AM staining was […]
# 4. Histology and Immunohistochemistry (IHC)
# At the end of the experiment, mice were sacrificed and the hearts were harvested, fixed in 4% formalin, and paraffin embedded. Fibrosis was detected with Masson’s trichrome staining kit (Sigma) according to the manufacturer’s protocol. SGK1 expression of cardiomyocytes was determined by staining cells with antibodies specific for SGK1.
# RT-PCR was performed to validate DEGs in the FoxO signaling pathway in response to Ext.R and also HBT’s effect on hypertrophic cardiomyocytes stimulated with phenylephrine. Total RNA isolation, reverse transcription and quantitative RT-PCR were performed using an Ultrapure RNA Kit, a HiFiScript First Strand cDNA Synthesis Kit, and an UltraSYBR Mixture Kit (CWBIO) respectively, according to the manufacturer's instructions. Relative target gene mRNA expression level was normalized to GAPDH. Primer sequences of genes […]
# 6. Pharmacokinetics studies
# Twelve male Sprague-Dawley rats, weighing 250 ± 10 g, were purchased from Huafukang biological technology (Beijing, China). […]
smiles,measurement,setting,value
"O=c1c(O)c(-c2ccc(O)cc2)oc2c(O)c(O)cc(O)c12 [HBT, herbacetin]","PE-induced hypertrophy, cardiomyocyte cell area","[1]; 50 µmol PE 48 h, Ext.R 50 µg mL−1 or HBT 50 µmol",attenuate PE‐induced hypertrophy
same,transcriptional level of ANP and BNP,"[1]; 50 µmol PE, Ext.R or HBT",inhibited
same,phosphorylation of SGK1 and FoxO1,"[1]; PE stimulation, western blot",significantly reduce
same,"protein expression of ACTA1, BNP and Myosin","[1]; PE stimulation, western blot",significantly reduced
same,phosphorylation level of NF-κB p65 (Ser536),[1]; PE-treated cardiomyocytes,did not affect
same,phosphorylation of Nedd4l,[1]; induced by PE,reduce the phosphorylation
same,direct binding between SGK1 and FoxO1,SGK1-FoxO1 interaction,did not detect significant impact
same,Tmax,"[2]; male, Sprague-Dawley, plasma, rat, read-out: time of maximal plasma concentration (converted)",10 min
same,"tissue distribution (heart, liver, kidney)",[2]; at time of maximal plasma concentration,readily detected
same,maximal plasma concentration,[2]; rat,≈ 6.73 ng mL^−1
